Measurements published in ChEMBL document CHEMBL1151012, “Synthesis and anti-pseudomonal activity of new 2-isocephems with a dihydroxypyridone moiety at C-7” (1994).
Converted amounts (≈) assume the structure as drawn.

How the values were obtained:
[1] = test system: Escherichia coli; assay: In vitro antibacterial activity against Escherichia coli NIH JC-2 bacteria was determined; format: functional
[2] = test system: Klebsiella pneumoniae; assay: In vitro antibacterial activity against Klebsiella pneumoniae NCTC-9632 bacteria was determined; format: functional
[3] = test system: Pseudomonas aeruginosa; assay: In vitro antibacterial activity against Pseudomonas aeruginosa ATCC 10145 bacteria was determined; format: functional
[4] = test system: Pseudomonas aeruginosa; assay: In vitro antibacterial activity against Pseudomonas aeruginosa NCTC-10490 bacteria was determined; format: functional
[5] = species on record: Mus musculus; assay: Protective effect on systemic infection in mice caused by clinically isolated Pseudomonas aeruginosa 67; format: functional
[6] = species on record: Mus musculus; assay: (§1) Protective effect on systemic infection in mice caused by clinically isolated Pseudomonas aeruginosa 58; format: functional
[7] = test system: Pseudomonas aeruginosa; assay: Antibacterial activity against clinically isolated Pseudomonas aeruginosa 67
[8] = test system: Pseudomonas aeruginosa; assay: as §1; format: functional
[9] = test system: Pseudomonas aeruginosa; assay: In vitro antibacterial activity against CAZ resistant Pseudomonas aeruginosa 59 was determined; format: functional
[10] = test system: Pseudomonas aeruginosa; assay: In vitro antibacterial activity against AZT resistant Pseudomonas aeruginosa 47 was determined; format: functional
[11] = test system: Pseudomonas aeruginosa; assay: In vitro antibacterial activity against AZT resistant Pseudomonas aeruginosa 56 was determined; format: functional
[12] = test system: Pseudomonas aeruginosa; assay: In vitro antibacterial activity against AZT resistant Pseudomonas aeruginosa 59 was determined; format: functional
[13] = test system: Pseudomonas aeruginosa; assay: In vitro antibacterial activity against AZT resistant Pseudomonas aeruginosa 69 was determined; format: functional
[14] = test system: Pseudomonas aeruginosa; assay: In vitro antibacterial activity against CAZ resistant Pseudomonas aeruginosa 47 was determined; format: functional
[15] = test system: Pseudomonas aeruginosa; assay: In vitro antibacterial activity against CAZ resistant Pseudomonas aeruginosa 56 was determined; format: functional
[16] = test system: Pseudomonas aeruginosa; assay: In vitro antibacterial activity against CAZ resistant Pseudomonas aeruginosa 69 was determined; format: functional
[17] = test system: Pseudomonas aeruginosa; assay: In vitro antibacterial activity against IPM resistant Pseudomonas aeruginosa 47 was determined; format: functional
[18] = test system: Pseudomonas aeruginosa; assay: In vitro antibacterial activity against IPM resistant Pseudomonas aeruginosa 56 was determined; format: functional
[19] = test system: Pseudomonas aeruginosa; assay: In vitro antibacterial activity against IPM resistant Pseudomonas aeruginosa 59 was determined; format: functional
[20] = test system: Pseudomonas aeruginosa; assay: In vitro antibacterial activity against IPM resistant Pseudomonas aeruginosa 69 was determined; format: functional
[21] = test system: Pseudomonas aeruginosa; assay: In vitro antibacterial activity against Pseudomonas aeruginosa 47 was determined; format: functional
[22] = test system: Pseudomonas aeruginosa; assay: In vitro antibacterial activity against Pseudomonas aeruginosa 56 was determined; format: functional
[23] = test system: Pseudomonas aeruginosa; assay: In vitro antibacterial activity against Pseudomonas aeruginosa 59 was determined; format: functional
[24] = test system: Pseudomonas aeruginosa; assay: In vitro antibacterial activity against Pseudomonas aeruginosa 69 was determined; format: functional

| MIC [1] | MIC [2] | MIC [3] | MIC [4] | SMILES | ED50 [5] | ED50 [6] | MIC [7] | other results |
| --- | --- | --- | --- | --- | --- | --- | --- | --- |
| 0.2 µg/mL (≈ 0.313 µM) | 0.1 µg/mL (≈ 0.157 µM) | 0.39 µg/mL (≈ 0.611 µM) | ≤ 0.025 µg/mL | Nc1nc(/C(=N/OCc2cc(=O)c(O)cn2O)C(=O)N[C@@H]2C(=O)N3C(C(=O)O)=C(CSc4cnns4)SC[C@H]23)cs1 (stereo in doubt) |  |  |  |  |
| 0.05 µg/mL (≈ 0.0735 µM) | ≤ 0.025 µg/mL | ≤ 0.025 µg/mL | ≤ 0.025 µg/mL | Nc1nc(/C(=N/OCc2cc(=O)c(O)cn2O)C(=O)N[C@@H]2C(=O)N3C(C(=O)O)=C(CSc4nnnn4CC(=O)O)SC[C@H]23)cs1 (stereo in doubt) |  |  |  |  |
| 0.2 µg/mL (≈ 0.313 µM) | ≤ 0.025 µg/mL | 0.1 µg/mL (≈ 0.157 µM) | ≤ 0.025 µg/mL | Nc1nc(/C(=N/OCc2cc(=O)c(O)cn2O)C(=O)N[C@@H]2C(=O)N3C(C(=O)O)=C(CSc4nncs4)SC[C@H]23)cs1 (stereo in doubt) |  |  |  |  |

| SMILES | MIC [1] | MIC [2] | MIC [3] | MIC [4] | ED50 [5] | ED50 [6] | MIC [7] | other results |
| --- | --- | --- | --- | --- | --- | --- | --- | --- |
| CC(C)(O/N=C(\C(=O)N[C@@H]1C(=O)N2C(C(=O)[O-])=C(C[n+]3ccccc3)CS[C@H]12)c1csc(N)n1)C(=O)O [CEFTAZIDIME] | 0.39 µg/mL (≈ 0.714 µM) | 0.05 µg/mL (≈ 0.0915 µM) | 1.56 µg/mL (≈ 2.85 µM) | 1.56 µg/mL (≈ 2.85 µM) | > 100 mg/kg | 31.7 mg/kg | 1.56 µg/mL (≈ 2.85 µM) | MIC [6]: 3.13 µg/mL (≈ 5.73 µM) |
| Cc1nc(SCC2=C(C(=O)O)N3C(=O)[C@@H](NC(=O)/C(=N\OCc4cc(=O)c(O)cn4O)c4csc(N)n4)[C@H]3CS2)sc1CC(=O)O | 0.1 µg/mL (≈ 0.141 µM) | 0.05 µg/mL (≈ 0.0704 µM) | 0.05 µg/mL (≈ 0.0704 µM) | ≤ 0.025 µg/mL | 21.8 mg/kg | 3.2 mg/kg | 0.1 µg/mL (≈ 0.141 µM) | MIC [8]: 0.05 µg/mL (≈ 0.0704 µM); MIC [9]: 50 µg/mL (≈ 70.4 µM); MIC [10]: 25 µg/mL (≈ 35.2 µM); MIC [11]: 50 µg/mL (≈ 70.4 µM); MIC [12]: 25 µg/mL (≈ 35.2 µM); MIC [13]: 25 µg/mL (≈ 35.2 µM); MIC [14]: 50 µg/mL (≈ 70.4 µM); MIC [15]: 12.5 µg/mL (≈ 17.6 µM); MIC [16]: 50 µg/mL (≈ 70.4 µM); MIC [17]: 25 µg/mL (≈ 35.2 µM); MIC [18]: 25 µg/mL (≈ 35.2 µM); MIC [19]: 50 µg/mL (≈ 70.4 µM); MIC [20]: 50 µg/mL (≈ 70.4 µM); MIC [21]: 1.56 µg/mL (≈ 2.2 µM); MIC [22]: 1.56 µg/mL (≈ 2.2 µM); MIC [23]: 1.56 µg/mL (≈ 2.2 µM); MIC [24]: 3.13 µg/mL (≈ 4.41 µM) |
